Like-named read-outs stand apart in the source and are kept apart here.
What was measured:
Setaria viridis [1] = assay: Post-emergence herbicidal action, greenhouse, 320 g/ha; type: in vivo; conditions: application rate 320 g/ha, rated visually after about 3 weeks vs untreated controls
Protocol: (§1) Seeds of monocotyledonous and dicotyledonous weeds and crop plants were placed in sandy loam in plastic or wood-fiber pots, covered with soil and cultivated in a greenhouse under controlled growth conditions. 2 to 3 weeks after sowing, the test plants were treated at the one-leaf stage. The compounds of the invention, formulated in the form of wettable powders (WP) or as emulsion concentrates (EC), were then sprayed onto the green parts of the plants as aqueous suspension or emulsion with addition of 0.5% additive at a water application rate of […] (converted). After the test plants had been kept in the greenhouse under optimum growth conditions for about 3 weeks, the activity of the preparations was rated visually in comparison to untreated controls. For example, 100% activity=the plants have died, 0% activity=like control plants. Tables A1 to A14 below show the effects of selected compounds of the general formula (I) according to Tables 1.1 to 1.150 on various harmful plants and at an application rate corresponding to 320 g/ha, which were obtained by the experimental procedure mentioned above.

Amaranthus retroflexus [2] = assay: as above; type: in vivo; conditions: application rate 320 g/ha, rated visually after about 3 weeks vs untreated controls
Protocol: as §1

Stellaria media [3] = assay: as above; type: in vivo; conditions: application rate 320 g/ha, rated visually after about 3 weeks vs untreated controls
Protocol: as §1

Matricaria inodora [4] = assay: as above; type: in vivo; conditions: application rate 320 g/ha, rated visually after about 3 weeks vs untreated controls
Protocol: as §1

Viola tricolor [5] = assay: as above; type: in vivo; conditions: application rate 320 g/ha, rated visually after about 3 weeks vs untreated controls
Protocol: as §1

Abutilon theophrasti [6] = assay: as above; type: in vivo; conditions: application rate 320 g/ha, rated visually after about 3 weeks vs untreated controls
Protocol: as §1

Echinochloa crus-galli = assay: Herbicidal pre-emergence action (Part 2), 1280 g/ha; type: in vivo; conditions: application rate 1280 g/ha, scored visually after about 3 weeks, Table D1
Text: (§2) Seeds of mono- and dicotyledonous weed plants were placed in plastic pots in sandy loam soil (doubly sown with in each case one species of mono- or dicotyledonous weed plants per pot) and covered with soil. The compounds of the invention, formulated in the form of wettable powders (WP) or as emulsion concentrates (EC), were then applied onto the surface of the covering soil as aqueous suspension or emulsion with addition of 0.5% additive at a water application rate of 600 liters per hectare (converted). After the treatment, the pots were placed in a greenhouse and kept under good growth conditions for the test plants. After about 3 weeks, the effect of the preparations was scored visually in comparison with untreated controls as percentages. For example, 100% activity=the plants have died, 0% activity=like control plants. Tables D1 to D8 below show the effects of selected compounds of the general formula (I) according to Tables 1.1 to 1.150 on various harmful plants and at an application rate corresponding to 1280 g/ha, which were obtained by the experimental procedure mentioned above.

photosystem II (PS II) = molecular target: T1, photosystem II (PS II) (Spinacia oleracea, UniProt P69560); assay: Measurement of PS II activity in thylakoid membranes (DCPIP reduction); type: biochemical, spinach; conditions: read-out: Effect
T1 construct: the chloroplasts were osmotically ruptured and the thylakoid membranes were then obtained by centrifugation; from tissue; host or cells: fresh spinach leaves; thylakoid membrane preparation from isolated chloroplasts
Protocol: Cooled fresh spinach leaves were comminuted and homogenized in 50 mM phosphate buffer, pH 6.8. 10 mM KCl, 0.34 M sucrose (sucrose buffer) (blender, 1 g of plant material/ml). The homogenate was subsequently filtered through 4 layers of Miracloth and the chloroplasts were isolated by centrifugation, i.e. 10 min of centrifugation at 4400×g (4° C.). The sediment was suspended in 25 ml of sucrose buffer and re-centrifuged for 10 min at 4400×g (4° C.). The sediment was then suspended in 40 ml of 50 mM phosphate buffer, pH 6.8, 10 mM KCl, without sucrose. In this step, the chloroplasts were osmotically ruptured and the thylakoid membranes were then obtained by centrifugation (10 min, 4400×g, 4° C.). The membrane sediment was finally suspended in about 20 ml of 50 mM phosphate buffer, pH 6.8, 10 mM KCl. Following protein determination and activity determination, the membrane suspension was divided into aliquots and frozen in liquid nitrogen. The aliquots were stored at −80° C. Under these conditions, the photosystem II preparation was storage stable for at least three months. The activity determination of photosystem II (PS II) was then carried out using the following test principle: The electron transfer from PS II to an artificial electron acceptor, 2,6-dichlorophenolindophenol (DCPIP), was measured with exposure to light. The concentration of the blue oxidized form of DCPIP was determined spectrophotometrically at wavelength λ=595 nm. […] The activity determination is carried out in microtiter plates (96 cavities) in a reaction volume of 200 μl. Here, 155 μl of dilute membrane suspension were initially charged in 50 mM of phosphate buffer, pH 6.8, 10 mM KCl. Depending on the activity of the PS II preparation, the dilution was adjusted such that the measurement of the decrease in absorption (λ=595 nm) was linear for at least 10 min. In each case 5 μl solutions of the test compounds of a concentration of 100 μM in DMSO were added to the enzyme suspension; controls contained 5 μl of DMSO; the final concentration of DMSO in the reaction batch was thus 2.5% (v/v); this concentration had no adverse effect on the enzymatic activity. On each microtiter plate, a known PS II inhibitor, for example metribuzin, was used as standard, which allowed the quality of the PS II test to be assessed. The reaction was started by addition of 40 μl DCPIP solution (600 μM in distilled water); the final concentration of DCPIP was 120 μM. Measurement of absorption is carried out over a period of 10 min at 22° C. and with exposure to light. Using metribuzin as comparative substance, the results for the efficacy of the compounds of the general formula (I) at 100 μM are stated in the table below using the following classification: ++++(inhibition≥90%), +++(90%>inhibition≥70%), ++(70%>inhibition≥50%), +(50%>inhibition≥30%).

Polygonum convolvulus [7] = assay: Pre-emergence herbicidal action, greenhouse, 320 g/ha; type: in vivo; conditions: application rate 320 g/ha, scored visually after about 3 weeks vs untreated controls
Text: (§3) Seeds of monocotyledonous and dicotyledonous weed plants and crop plants were placed in plastic or organic planting pots and covered with soil. The compounds of the invention, formulated in the form of wettable powders (WP) or as emulsion concentrates (EC), were then applied to the surface of the covering soil as aqueous suspension or emulsion with addition of 0.5% additive at a water application rate equivalent to […]. After the treatment, the pots were placed in a greenhouse and kept under good growth conditions for the test plants. After about 3 weeks, the effect of the preparations is scored visually in comparison with untreated controls as percentages. For example, 100% activity=the plants have died, 0% activity=like control plants. Tables B1 to B14 below show the effects of selected compounds of the general formula (I) according to Tables I.1 to I.150 on various harmful plants and at an application rate corresponding to 320 g/ha, which were obtained by the experimental procedure mentioned above.

Digitaria sanguinalis = assay: as above; type: in vivo; conditions: application rate 320 g/ha, Table B9
Text: as §3

Pharbitis purpurea [8] = assay: as above; type: in vivo; conditions: application rate 320 g/ha, Table B12
Text: as §3

Amaranthus retroflexus [9] = assay: as above; type: in vivo; conditions: application rate 320 g/ha, scored visually after about 3 weeks vs untreated controls
Text: as §3

Stellaria media [10] = assay: as above; type: in vivo; conditions: application rate 320 g/ha, scored visually after about 3 weeks vs untreated controls
Text: as §3

Matricaria inodora [11] = assay: as above; type: in vivo; conditions: application rate 320 g/ha, scored visually after about 3 weeks vs untreated controls
Text: as §3

Viola tricolor [12] = assay: as above; type: in vivo; conditions: application rate 320 g/ha, Table B8
Text: as §3

Alopecurus myosuroides = assay: as above; type: in vivo; conditions: application rate 320 g/ha, scored visually after about 3 weeks vs untreated controls
Text: as §3

Veronica persica = assay: as above; type: in vivo; conditions: application rate 320 g/ha, Table B13
Text: as §3

Poa annua [13] = assay: Herbicidal post-emergence action (Part 2), 1280 g/ha; type: in vivo; conditions: application rate 1280 g/ha, rated visually after about 3 weeks, Table C2
Protocol: (§4) Seeds of mono- and dicotyledonous weed plants were placed in plastic pots in sandy loam soil (doubly sown with in each case one species of mono- or dicotyledonous weed plants per pot), covered with soil and cultivated in a greenhouse under controlled growth conditions. 2 to 3 weeks after sowing, the test plants were treated at the one-leaf stage. The compounds of the invention, formulated in the form of wettable powders (WP) or as emulsion concentrates (EC), were applied onto the green parts of the plants as aqueous suspension or emulsion with addition of 0.5% additive at a water application rate of 600 liters per hectare (converted). After the test plants had been kept in the greenhouse under optimum growth conditions for about 3 weeks, the activity of the preparations was rated visually in comparison to untreated controls. For example, 100% activity=the plants have died, 0% activity=like control plants. Tables C1 to C7 below show the effects of selected compounds of the general formula (I) according to Tables 1.1 to 1.150 on various harmful plants and at an application rate corresponding to 1280 g/ha, which were obtained by the experimental procedure mentioned above.

Amaranthus retroflexus [14] = assay: as above; type: in vivo; conditions: application rate 1280 g/ha, rated visually after about 3 weeks, Table C5
Protocol: as §4

Poa annua [15] = assay: Herbicidal pre-emergence action (Part 2), 1280 g/ha; type: in vivo; conditions: application rate 1280 g/ha, scored visually after about 3 weeks, Table D3
Text: as §2

Matricaria inodora [16] = assay: as above; type: in vivo; conditions: application rate 1280 g/ha, scored visually after about 3 weeks, Table D7
Text: as §2

Abutilon theophrasti [17] = assay: as above; type: in vivo; conditions: application rate 1280 g/ha, scored visually after about 3 weeks, Table D5
Text: as §2

Hordeum murinum = assay: Pre-emergence herbicidal action, greenhouse, 320 g/ha; type: in vivo; conditions: application rate 320 g/ha, Table B14
Text: as §3

Setaria viridis [18] = assay: as above; type: in vivo; conditions: application rate 320 g/ha, Table B11
Text: as §3

Avena fatua = assay: as above; type: in vivo; conditions: application rate 320 g/ha, scored visually after about 3 weeks vs untreated controls
Text: as §3

Abutilon theophrasti [19] = assay: as above; type: in vivo; conditions: application rate 320 g/ha, scored visually after about 3 weeks vs untreated controls
Text: as §3

Polygonum convolvulus [20] = assay: Post-emergence herbicidal action, greenhouse, 320 g/ha; type: in vivo; conditions: application rate 320 g/ha, rated visually after about 3 weeks vs untreated controls
Protocol: as §1

Pharbitis purpurea [21] = assay: as above; type: in vivo; conditions: application rate 320 g/ha, rated visually after about 3 weeks vs untreated controls
Protocol: as §1

[22] = PS II activity in spinach thylakoid membranes, Table E1

Structure (SMILES)	Setaria viridis (efficacy in %) (Setaria viridis [1]) [%]	Amaranthus retroflexus (efficacy in %) (Amaranthus retroflexus [2]) [%]	Stellaria media (efficacy in %) (Stellaria media [3]) [%]	Matricaria inodora (efficacy in %) (Matricaria inodora [4]) [%]	Abutilon theophrasti (efficacy in %) (Abutilon theophrasti [6]) [%]	inhibition at 100 µM (photosystem II (PS II); [22]) [%]	Polygonum convolvulus (efficacy in %) (Polygonum convolvulus [7]) [%]	Digitaria sanguinalis (efficacy in %) (Digitaria sanguinalis) [%]	Pharbitis purpurea (efficacy in %) (Pharbitis purpurea [8]) [%]	Amaranthus retroflexus (efficacy in %) (Amaranthus retroflexus [9]) [%]	Stellaria media (efficacy in %) (Stellaria media [10]) [%]	Matricaria inodora (efficacy in %) (Matricaria inodora [11]) [%]	Viola tricolor (efficacy in %) (Viola tricolor [12]) [%]	Alopecurus myosuroides (efficacy in %) (Alopecurus myosuroides) [%]	further results
CC(=O)OC1CC(C)N(C)C(=O)N1c1cc(C(C)(C)C)on1 (single isomer, unassigned) [I.42-162_a]	80	100	100	100	100										Viola tricolor (efficacy in %) (Viola tricolor [5]): 100%
CN1CCC(O)N(c2cc(C(C)(C)C)no2)C1=O (centres unmarked) [I.1-290, 3-(3-tert-Butyl-1,2-oxazol-5-yl)-4-hydroxy-1-methyltetrahydropyrimidin-2(1H)-one]						> 90									Echinochloa crus-galli (Echinochloa crus-galli): 90%
CN1CCC(O)N(c2cc(C(F)(F)F)ccn2)C1=O (centres unmarked) [I.1-449, 4-Hydroxy-1-methyl-3-[4-(trifluoromethyl)pyridin-2-yl]tetrahydropyrimidin-2(1H)-one]						50 to 70	100	100	100	100	100	80	100	100	Veronica persica (efficacy in %) (Veronica persica): 80%
CN1CC(C)(C)C(O)N(c2cc(C(C)(C)C)on2)C1=O (centres unmarked) [I.61-162, 1-(5-tert-Butyl-1,2-oxazol-3-yl)-6-hydroxy-3,5,5-trimethyltetrahydropyrimidin-2(1H)-one]						70 to 90									Poa Annua (Poa annua [13]): 90%; Amaranthus retroflexus (Amaranthus retroflexus [14]): 100%; Poa Annua (Poa annua [15]): 100%; Matricaria inodora (Matricaria inodora [16]): 90%; Abutilon theophrasti (Abutilon theophrasti [17]): 100%
CC(=O)OC1CC2CCCN2C(=O)N1c1cc(C(C)(C)C)on1 (centres unmarked) [I.122-162]	80	90	80	90	100		100	100	100	90	100	100	100	90	Hordeum murinum (efficacy in %) (Hordeum murinum): 100%; Setaria viridis (efficacy in %) (Setaria viridis [18]): 100%; Avena fatua (efficacy in %) (Avena fatua): 80%; Abutilon theophrasti (efficacy in %) (Abutilon theophrasti [19]): 100%; Polygonum convolvulus (efficacy in %) (Polygonum convolvulus [20]): 90%; Pharbitis purpurea (efficacy in %) (Pharbitis purpurea [21]): 80%
CSc1nnc(C(C)(C)C)c(=O)n1N [Metribuzin, metribuzin, reference compound]															inhibition at 100 µM (photosystem II (PS II)): > 90%
